Measured values as given in US20240182453A1, “NOVEL SUBSTITUTED PYRAZINE-CARBOXAMIDE DERIVATIVES” (Boehringer Ingelheim International GmbH, priority 2022, published 2024).

Molecular target: human metabotropic Glutamate 4 receptor (mGluR4) (Homo sapiens (Human), UniProt Q14833)
Test: Assay A: in vitro testing of mGluR4 potency (glutamate-induced cAMP lowering, HTRF cAMP)
Assay type: cell-based
Conditions: HEK293 cells overexpressing human mGluR4; 10 uM L-glutamic acid, 1 uM forskolin; compounds of the present invention
Summary of the method: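 HEK293 cells overexpressing human mGluR4 treated 30 min at room temperature with compound plus 10 uM L-glutamate, 1 uM forskolin, 0.5 mM IBMX, 0.1% BSA, 1% DMSO. cAMP read by HTRF (665/615 nm ratio), normalized to glutamate (100%) and no-glutamate (0%) controls as percent of control.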

Sequence of human metabotropic Glutamate 4 receptor (mGluR4) (Q14833 33-912): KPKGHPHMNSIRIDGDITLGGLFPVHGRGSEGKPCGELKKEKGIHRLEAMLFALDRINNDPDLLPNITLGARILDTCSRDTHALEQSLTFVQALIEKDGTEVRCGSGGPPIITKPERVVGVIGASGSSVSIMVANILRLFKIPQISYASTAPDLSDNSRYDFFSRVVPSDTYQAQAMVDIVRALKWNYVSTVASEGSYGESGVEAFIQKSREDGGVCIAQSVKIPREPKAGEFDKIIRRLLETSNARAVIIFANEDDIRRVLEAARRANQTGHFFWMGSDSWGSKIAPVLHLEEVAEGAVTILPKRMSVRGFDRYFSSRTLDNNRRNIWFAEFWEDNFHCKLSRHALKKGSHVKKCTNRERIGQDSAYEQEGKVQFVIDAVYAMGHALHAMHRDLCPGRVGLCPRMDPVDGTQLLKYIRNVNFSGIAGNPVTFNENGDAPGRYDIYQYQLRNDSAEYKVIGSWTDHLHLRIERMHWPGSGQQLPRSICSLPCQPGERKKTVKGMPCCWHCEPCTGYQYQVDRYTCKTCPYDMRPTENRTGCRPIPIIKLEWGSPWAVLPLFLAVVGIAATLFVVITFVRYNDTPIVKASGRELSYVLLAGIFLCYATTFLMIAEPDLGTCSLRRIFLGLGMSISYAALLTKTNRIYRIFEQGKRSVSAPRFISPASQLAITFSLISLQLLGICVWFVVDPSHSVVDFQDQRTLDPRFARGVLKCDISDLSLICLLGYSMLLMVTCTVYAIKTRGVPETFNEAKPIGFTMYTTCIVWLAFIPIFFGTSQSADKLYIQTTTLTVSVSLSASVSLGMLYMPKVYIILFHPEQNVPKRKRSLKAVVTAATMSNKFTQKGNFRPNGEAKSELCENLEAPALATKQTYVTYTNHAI

Structure (SMILES) | IC50
Cc1cnc(C(=O)N[C@H](c2nc3cc(F)ccc3n2C)C2CC2)cn1 [Example 51, N-[(S)-cyclopropyl(5-fluoro-1-methyl-1H-1,3-benzodiazol-2-yl)methyl]-5-methylpyrazine-2-carboxamide] | 28 nM
CCn1c([C@@H](NC(=O)c2cnc(C(F)F)cn2)C(C)(C)O)nc2cc(F)c(F)cc21 [Example 57, 5-(difluoromethyl)-N-[(1R)-1-(1-ethyl-5,6-difluoro-1H-1,3-benzodiazol-2-y1)-2-hydroxy-2-methylpropyl]pyrazine-2-carboxamide] | 19 nM
Cc1cnc(C(=O)N[C@H](c2nc3ccc(C(F)(F)F)cc3n2C)C2CC2)cn1 [Example 63, N-[(S)-cyclopropyl[1-methyl-6-(trifluoromethyl)-1H-1,3-benzodiazol-2-yl]methyl]-5-methylpyrazine-2-carboxamide] | 14 nM
Cc1cnc(C(=O)N[C@H](c2nc3cc(F)ccc3n2C)C(C)C)cn1 [Example 64, N-[(1S)-1-(5-fluoro-1-methyl-1H-1,3-benzodiazol-2-yl)-2-methylpropyl]-5-methylpyrazine-2-carboxamide] | 19 nM
CCn1c([C@@H](NC(=O)c2cnc(C(F)F)cn2)C(C)(C)O)nc2cc(F)ccc21 [Example 65, 5-(difluoromethyl)-N-[(1R)-1-(1-ethyl-5-fluoro-1H-1,3-benzodiazol-2-yl)-2-hydroxy-2-methylpropyl]pyrazine-2-carboxamide] | 16 nM
Cc1cnc(C(=O)N[C@H](c2nc3cc(Cl)ccc3n2C)[C@@H]2CCCO2)cn1 [Example 68, N-[(R)-(5-chloro-1-methyl-1H-1,3-benzodiazol-2-yl)[(2S)-oxolan-2-yl]methyl]-5-methylpyrazine-2-carboxamide] | 19 nM
Cc1cnc(C(=O)N[C@H](c2nc3cc(F)ccc3n2CC(F)F)[C@@H](C)OC(F)F)cn1 [Example 69, N-[(1R,2R)-1-[1-(2,2-difluoroethyl)-5-fluoro-1H-1,3-benzodiazol-2-y1]-2-(difluoromethoxy)propyl]-5-methylpyrazine-2-carboxamide] | 18 nM
COCCn1c(C(NC(=O)c2cnc(C)cn2)C2CCCO2)nc2cc(C(F)(F)F)ccc21 (centres unmarked) [Example 71-3, N-{[1-(2-methoxyethyl)-5-(trifluoromethyl)-1H-1,3-benzodiazol-2-yl](oxolan-2-yl)methyl}-5-methylpyrazine-2-carboxamide] | 62 nM
Cc1cnc(C(=O)N[C@H](c2nc3cc(F)ccc3n2C2CC2)C2CC2)cn1 [Example 73, N-[(S)-cyclopropyl (1-cyclopropyl-5-fluoro-1H-1,3-benzodiazol-2-yl)methyl]-5-methylpyrazine-2-carboxamide] | 18 nM
Cc1cnc(C(=O)N[C@H](c2nc3cc(OC(F)(F)F)ccc3n2C)[C@@H]2CCCOC2)cn1 [Example 78, 5-methyl-N-[(S)-[1-methyl-5-(trifluoromethoxy)-1H-1,3-benzodiazol-2-yl][(3S)-oxan-3-yl]methyl]pyrazine-2-carboxamide] | 13 nM
COCCn1c([C@@H](NC(=O)c2cnc(C)cn2)[C@@H](C)OC(F)F)nc2cc(OC(F)F)ccc21 [Example 79, N-[(1R,2R)-2-(difluoromethoxy)-1-[5-(difluoromethoxy)-1-(2-methoxyethyl)-1H-1,3-benzodiazol-2-yl]propyl]-5-methylpyrazine-2-carboxamide] | 19 nM
CO[C@H](C)[C@H](NC(=O)c1cnc(C(F)F)cn1)c1nc2cc(OC(F)F)ccc2n1C [Example 80, N-[(1R,2R)-1-[5-(difluoromethoxy)-1-methyl-1H-1,3-benzodiazol-2-yl]-2-methoxypropyl]-5-(difluoromethyl)pyrazine-2-carboxamide] | 29 nM
CCn1c([C@@H](NC(=O)c2cnc(C)cn2)C(C)(C)O)nc2cc(Cl)ccc21 [Example 81, N-[(1R)-1-(5-chloro-1-ethyl-1H-1,3-benzodiazol-2-yl)-2-hydroxy-2-methylpropyl]-5-methylpyrazine-2-carboxamide] | 14 nM
Cc1cnc(C(=O)N[C@H](c2nc3cc(C(F)(F)F)ccc3n2C)[C@H]2CCCOC2)cn1 [Example 82, 5-methyl-N-[(S)-[1-methyl-5-(trifluoromethyl)-1H-1,3-benzodiazol-2-yl][(3R)-oxan-3-yl]methyl]pyrazine-2-carboxamide] | 13 nM
CC(C)(O)[C@H](NC(=O)c1cnc(C(F)F)cn1)c1nc2cc(F)ccc2n1CC(F)F [Example 83, N-[(1R)-1-[1-(2,2-difluoroethyl)-5-fluoro-1H-1,3-benzodiazol-2-yl]-2-hydroxy-2-methylpropyl]-5-(difluoromethyl)pyrazine-2-carboxamide] | 38 nM
Cc1cnc(C(=O)N[C@H](c2nc3cc(F)ccc3n2C(C)C)[C@H]2CCOC2)cn1 [Example 84, N-[(S)-[5-fluoro-1-(propan-2-yl)-1H-1,3-benzodiazol-2-yl][(3R)-oxolan-3-yl]methyl]-5-methylpyrazine-2-carboxamide] | 26 nM
CO[C@H](C)[C@H](NC(=O)c1cnc(C)cn1)c1nc2cc(F)c(F)cc2n1C [Example 85, N-[(1R,2R)-1-(5,6-difluoro-1-methyl-1H-1,3-benzodiazol-2-yl)-2-methoxypropyl]-5-methylpyrazine-2-carboxamide] | 48 nM

The next compounds have a lower IC50 than those just listed; values first:

IC50 | Structure (SMILES)
5 nM | Cc1cnc(C(=O)N[C@H](c2nc3cc(Br)c(F)cc3n2C)C2CC2)cn1 [Example 52, N-[(S)-(5-bromo-6-fluoro-1-methyl-1H-1,3-benzodiazol-2-yl) (cyclopropyl)methyl]-5-methylpyrazine-2-carboxamide]
6 nM | COCCn1c([C@@H](NC(=O)c2cnc(C(F)F)cn2)[C@H]2CCCO2)nc2cc(OC(F)(F)F)ccc21 [Example 53, 5-(difluoromethyl)-N-[(R)-[1-(2-methoxyethyl)-5-(trifluoromethoxy)-1H-1,3-benzodiazol-2-yl][(2R)-oxolaN-2-yl]methyl]pyrazine-2-carboxamide]
1 nM | COCCn1c([C@@H](NC(=O)c2cnc(C)cn2)C2CC2)nc2c(C)c(Br)ccc21 [Example 54, N-[(S)-[5-bromo-1-(2-methoxyethyl)-4-methyl-1H-1,3-benzodiazol-2-yl](cyclopropyl)methyl]-5-methylpyrazine-2-carboxamide]
7 nM | Cn1c([C@@H](NC(=O)c2cnc(C(F)F)cn2)C2CC2)nc2cc(Cl)ccc21 [Example 55, N-[(S)-(5-chloro-1-methyl-1H-1,3-benzodiazol-2-yl)(cyclopropyl)methyl]-5-(difluoromethyl)pyrazine-2-carboxamide]
4 nM | COCCn1c([C@@H](NC(=O)c2cnc(C)cn2)[C@@H]2CCCO2)nc2cc(OC(F)(F)F)ccc21 [Example 58, N-[(R)-[1-(2-methoxyethyl)-5-(trifluoromethoxy)-1H-1,3-benzodiazol-2-yl][(2S)-oxolan-2-yl]methyl]-5-methylpyrazine-2-carboxamide]
8 nM | Cc1cnc(C(=O)N[C@H](c2nc3cc(C(F)(F)F)ccc3n2C)[C@@H](C)OC(F)F)cn1 [Example 61, N-[(1R,2R)-2-(difluoromethoxy)-1-[1-methyl-5-(trifluoromethyl)-1H-1,3-benzodiazol-2-yl]propyl]-5-methylpyrazine-2-carboxamide]
9 nM | COCCn1c([C@@H](NC(=O)c2cnc(C)cn2)[C@H]2CCOC2)nc2cc(OC(F)(F)F)ccc21 [Example 62, N-[(S)-[1-(2-methoxyethyl)-5-(trifluoromethoxy)-1H-1,3-benzodiazol-2-yl][(3R)-oxolan-3-yl]methyl]-5-methylpyrazine-2-carboxamide]
10 nM | COCCn1c([C@@H](NC(=O)c2cnc(C)cn2)C2CC2)nc2cc(OC(F)F)c(F)cc21 [Example 67, N-[(S)-cyclopropyl[5-(difluoromethoxy)-6-fluoro-1-(2-methoxyethyl)-1H-1,3-benzodiazol-2-yl]methyl]-5-methylpyrazine-2-carboxamide]
8 nM | Cc1cnc(C(=O)N[C@H](c2nc3cc(Cl)ccc3n2C)C(C)C)cn1 [Example 72, N-[(1S)-1-(5-chloro-1-methyl-1H-1,3-benzodiazol-2-yl)-2-methylpropyl]-5-methylpyrazine-2-carboxamide]
6 nM | Cc1cnc(C(=O)N[C@H](c2nc3cc(OC(F)(F)F)ccc3n2C)C2CC2)cn1 [Example 74, N-[(S)-cyclopropyl[1-methyl-5-(trifluoromethoxy)-1H-1,3-benzodiazol-2-yl]methyl]-5-methylpyrazine-2-carboxamide]
12 nM | Cc1cnc(C(=O)N[C@H](c2nc3cc(Cl)ccc3n2C)[C@@H]2CC2(F)F)cn1 [Example 76, N-[(S)-(5-chloro-1-methyl-1H-1,3-benzodiazol-2-yl)[(1S)-2,2-difluorocyclopropyl]methyl]-5-methylpyrazine-2-carboxamide]
12 nM | COCCn1c([C@@H](NC(=O)c2cnc(C(F)F)cn2)[C@H]2CCOC2)nc2cc(OC(F)(F)F)ccc21 [Example 77, 5-(difluoromethyl)-N-[(S)-[1-(2-methoxyethyl)-5-(trifluoromethoxy)-1H-1,3-benzodiazol-2-yl][(3R)-oxolan-3-yl]methyl]pyrazine-2-carboxamide]
10 nM | Cc1cnc(C(=O)N[C@@H](CC2CC2)c2nc3cc(Cl)ccc3n2C)cn1 [Example 86, N-[(1S)-1-(5-chloro-1-methyl-1H-1,3-benzodiazol-2-yl)-2-cyclopropylethyl]-5-methylpyrazine-2-carboxamide]
12 nM | COCCn1c([C@@H](NC(=O)c2cnc(C)cn2)[C@H]2CCOC2)nc2cc(C(F)(F)F)ccc21 [Example 87, N-[(S)-[1-(2-methoxyethyl)-5-(trifluoromethyl)-1H-1,3-benzodiazol-2-yl][(3R)-oxolan-3-yl]methyl]-5-methylpyrazine-2-carboxamide]
3 nM | CO[C@H](C)[C@H](NC(=O)c1cnc(C)cn1)c1nc2c(C)c(Br)ccc2n1C [Example 88, N-[(1R,2R)-1-(5-bromo-1,4-dimethyl-1H-1,3-benzodiazol-2-yl)-2-methoxypropyl]-5-methylpyrazine-2-carboxamide]
